Results from patent US20070082075A1, “Traditional chinese medicine preparation for treatment of tumor and method of making and using same” (priority 2003, published 2007).
Several values for one entry are separate records, joined by “and”; a condition that tells them apart may be missing. Identical values can stand only once. Like-named read-outs stand apart in the source and are kept apart here. Marks after values point to notes of the source that are not given here.

How the values were obtained:
[1] = tested on: S180 sarcomas; type: in vivo, Kunming mice
[2] = tested on: human gastric cancer cell line MKN; conditions: mouse, in vivo
[3] = tested on: human liver cancer cell line QGY; conditions: mouse, in vivo
[4] = tested on: mice colon carcinoma C26; conditions: mouse, in vivo, 30 mg/kg
[5] = tested on: Lewis lung carcinoma; conditions: mouse, in vivo

`O=P1(N(CCCl)CCCl)NCCCO1` (centres unmarked) [cyclophosphamide] was tested, and the inhibition rate % ([1]; 15.0 mg/kg ip × 7) was 45.02*** %, the “tumor weight (g) x ± SD” value ([1]; 15.0 mg/kg ip × 7) was 1.71 ± 0.25 g and the inhibition rate % ([1]; 30.0 mg/kg ip × 7) was 84.24*** %. The “tumor weight (g) x ± SD” value ([1]; 30.0 mg/kg ip × 7) was 0.49 ± 0.12 g, the inhibition ratio % [2] was 88.11*** % and 89.06*** % and the “tumor weight x ± SD” value [2] was 0.17 ± 0.15 and 0.14 ± 0.05. The inhibition ratio % [3] was 88.79*** % and 89.05*** %, the “tumor weight x ± SD” value [3] was 0.25 ± 0.14 and 0.22 ± 0.08 and the inhibition ratio % [4] was 91.02*** % and 79.12*** %. The “tumor weight x ± SD” value [4] was 0.22 ± 0.06 and 0.19 ± 0.06, the inhibition ratio % ([4]; ip) was 91.90*** % and 81.35*** % and the “tumor weight x ± SD” value ([4]; ip) was 0.22 ± 0.06 and 0.18 ± 0.06. The inhibition ratio % [5] was 88.32*** % and 88.49*** % and the “tumor weight x ± SD” value [5] was 0.25 ± 0.07 and 0.29 ± 0.07.
